From patent US5190921A, “Amino acids and peptides having a modified tyrosine residue, their preparation and their application as medicaments” (Institut National de la Sante et de la Recherche Medicale …, priority 1988, dated 1993)
pEC50: −log10 of the molar value. *1 amine or outer side, *2 acyl side, *3 side chain or, on linkers, in order; H or OH if unused. Where a SMILES comes first, the peptide text is derived from it. [ ]: non-standard residue; d: D form. The star is where a group is joined. X1 = CCCC[C@@H](NC(=O)CC(=O)*)NC(=O)[C@H](Cc1ccc(CS(=O)(=O)O)cc1)NC(C)=O; Phe(4-CH2SO3H) = N[C@@H](Cc1ccc(CS(=O)(=O)O)cc1)C(=O)O; X2 = O=C([C@@H](Cc1ccc(CS(=O)(=O)O)cc1)N[*:1])[*:2]; sY = N[C@@H](Cc1ccc(OS(=O)(=O)O)cc1)C(=O)O; NMeNle = CCCC[C@H](NC)C(=O)O; Nle = CCCC[C@H](N)C(=O)O; Boc = CC(C)(C)OC(=O)*

Experiments:
[1] = molecular target: guinea pig pancreatic acini; assay: Pancreatic amylase liberation test; type: cell-based; conditions: acini incubated 30 minutes at 37° C.; mean of three experiments in triplicate; read-out: Amylase secretion from guinea pig pancreatic acini, Agonist activity EC50
Protocol: Amylase secretion is measured after incubation of pancreatic acini for 30 minutes at 37° C. in the presence of the products under study, according to the experimental protocol described by Peikin et al., Am. J. Physiol., 235 (6), E 743-E 749, (1978). Amylase activity is determined using Phadebas reagent (Pharmacia), according to the method described by Ceska et al., Experientia, 25, 555 (1969). The values indicated in this table represent the mean of three separate experiments, each carried out in triplicate.

guinea pig ileum = assay: Contraction-producing activity on guinea pig ileum; conditions: isolated ileum strips, Tyrode's solution, 37° C.; mean ± s.e.m. of three experiments; read-out: Contraction-producing activity on guinea pig ileum, Agonist activity EC50
Protocol: This test is carried out according to the method described by Hutchinson et al., Eur. J. Pharmacol., 69, 87 (1981). Strips from the terminal portion of the guinea pig ileum are rapidly sampled and fixed in the tank of an isometric gauge containing 25 cm^3 of Tyrode's solution. The solution is maintained at 37° C. while passing through it, bubble by bubble, a gas composed of 95% oxygen and 5% CO2. The compounds under study are tested in the conditions described by Ruiz-Gayo et al., Peptides, 6, 415, (1985).
The values indicated in this table represent the mean (± s.e.m.) of three separate experiments.

[2] = Enzymatic stability in crude rat brain membranes; type: in vitro ADME; conditions: enzymatic degradation in crude rat brain membranes; read-out: 1/2 life time
Protocol: The resistance of these analogs to enzymatic degradation was tested in crude rat brain membranes which contain at the same time aminopeptidasic, thiolproteasic and encephalinasic activity [Matsas et al. Febs. Lett. 175, 124 (1984); McDermott et al. Neurochem. Int. 5, 641 (1983)]. These compounds were tested according to the protocol previously described by Durieux et al. Neuropeptides 7, 1, (1986).

SMILES | pEC50 [1] | pEC50 (guinea pig ileum) | half-life [2] [h]
CCCC[C@H](NC(=O)[C@H](Cc1ccc(CS(=O)(=O)O)cc1)NC(C)=O)C(=O)NCC(=O)N[C@@H](Cc1c[nH]c2ccccc12)C(=O)N[C@@H](CCCC)C(=O)N[C@@H](CC(=O)O)C(=O)N[C@@H](Cc1ccccc1)C(N)=O [Example 13, Ac-L-Phe(p-CH2 SO3 Na)-NLe-Gly-Trp-NLe-Asp-PheNH2] (Ac-[Phe(4-CH2SO3H)][Nle]GW[Nle]DF-NH2) | 9.48 | 8.42 | –
CCCC[C@H](NC(=O)[C@H](Cc1ccc(OS(=O)(=O)O)cc1)NC(=O)OC(C)(C)C)C(=O)NCC(=O)N[C@@H](Cc1c[nH]c2ccccc12)C(=O)N(C)[C@@H](CCCC)C(=O)N[C@@H](CC(=O)O)C(=O)N[C@@H](Cc1ccccc1)C(N)=O [Example 16, Boc-Tyr(SO3 Na)-Nle-Gly-Trp-(N-Me)Nle-Asp(Na)-Phe-NH2] (Boc-[sY][Nle]GW[NMeNle]DF-NH2) | 6.42 | < 6.00 | > 4.17
CCCC[C@@H](NC(=O)CC(=O)N[C@@H](Cc1c[nH]c2ccccc12)C(=O)N(C)[C@@H](CCCC)C(=O)N[C@@H](CC(=O)O)C(=O)N[C@@H](Cc1ccccc1)C(N)=O)NC(=O)[C@H](Cc1ccc(CS(=O)(=O)O)cc1)NC(C)=O [Example 18, Ac-L-Phe(p-CH2 SO3 Na)-gNle-mGly-Trp-(N-Me)Nle-Asp-Phe-NH2] (X1-W[NMeNle]DF-NH2) | 6.19 | < 6.00 | > 4.17
CCCC[C@@H](NC(=O)CC(=O)N[C@@H](Cc1c[nH]c2ccccc12)C(=O)N(C)[C@@H](CCCC)C(=O)N[C@@H](CC(=O)O)C(=O)N[C@@H](Cc1ccccc1)C(N)=O)NC(=O)[C@H](Cc1ccc(OS(=O)(=O)O)cc1)NC(=O)OC(C)(C)C [Example 15, Boc-Tyr(SO3 Na)-gNle-mGly-Trp-(N-Me)Nle-Asp(Na)-Phe-NH2] | 9.46 | 9.00 | > 3
CCCC[C@H](NC(=O)[C@H](Cc1c[nH]c2ccccc12)NC(=O)CNC(=O)[C@H](CCCC)NC(=O)[C@@H](Cc1ccc(CS(=O)(=O)O)cc1)NC(C)=O)C(=O)N[C@@H](CC(=O)O)C(=O)N[C@@H](Cc1ccccc1)C(N)=O [Example 14, Ac-D-Phe(p-CH2 SO3 Na)-NLe-Gly-Trp-NLe-Asp-PheNH2] (Ac-[X2][Nle]GW[Nle]DF-NH2) | 8.80 | 7.74 | –
CSCC[C@H](NC(=O)[C@H](Cc1ccc(OS(=O)(=O)O)cc1)NC(=O)[C@@H](N)CC(=O)O)C(=O)NCC(=O)N[C@@H](Cc1c[nH]c2ccccc12)C(=O)N[C@@H](CCSC)C(=O)N[C@@H](CC(=O)O)C(=O)N[C@@H](Cc1ccccc1)C(N)=O [CCK8, Asp-Tyr(SO3 H)-Met-Gly-Trp-Met-Asp-Phe-NH2, reference compound] | – | – | 0.75
